Among the data in patent US20240158392A1 (Janssen Biotech, Inc., priority 2021, published 2024) are IC50 values, retold here.

The first experiment deals with SIK2 (Homo sapiens, UniProt Q9H0K1). Briefly: SIK2 Enzymatic Assay High Version 2 (High ATP). It is filed as biochemical.
Sequence of SIK2 (Q9H0K1 whole entry, species assumed): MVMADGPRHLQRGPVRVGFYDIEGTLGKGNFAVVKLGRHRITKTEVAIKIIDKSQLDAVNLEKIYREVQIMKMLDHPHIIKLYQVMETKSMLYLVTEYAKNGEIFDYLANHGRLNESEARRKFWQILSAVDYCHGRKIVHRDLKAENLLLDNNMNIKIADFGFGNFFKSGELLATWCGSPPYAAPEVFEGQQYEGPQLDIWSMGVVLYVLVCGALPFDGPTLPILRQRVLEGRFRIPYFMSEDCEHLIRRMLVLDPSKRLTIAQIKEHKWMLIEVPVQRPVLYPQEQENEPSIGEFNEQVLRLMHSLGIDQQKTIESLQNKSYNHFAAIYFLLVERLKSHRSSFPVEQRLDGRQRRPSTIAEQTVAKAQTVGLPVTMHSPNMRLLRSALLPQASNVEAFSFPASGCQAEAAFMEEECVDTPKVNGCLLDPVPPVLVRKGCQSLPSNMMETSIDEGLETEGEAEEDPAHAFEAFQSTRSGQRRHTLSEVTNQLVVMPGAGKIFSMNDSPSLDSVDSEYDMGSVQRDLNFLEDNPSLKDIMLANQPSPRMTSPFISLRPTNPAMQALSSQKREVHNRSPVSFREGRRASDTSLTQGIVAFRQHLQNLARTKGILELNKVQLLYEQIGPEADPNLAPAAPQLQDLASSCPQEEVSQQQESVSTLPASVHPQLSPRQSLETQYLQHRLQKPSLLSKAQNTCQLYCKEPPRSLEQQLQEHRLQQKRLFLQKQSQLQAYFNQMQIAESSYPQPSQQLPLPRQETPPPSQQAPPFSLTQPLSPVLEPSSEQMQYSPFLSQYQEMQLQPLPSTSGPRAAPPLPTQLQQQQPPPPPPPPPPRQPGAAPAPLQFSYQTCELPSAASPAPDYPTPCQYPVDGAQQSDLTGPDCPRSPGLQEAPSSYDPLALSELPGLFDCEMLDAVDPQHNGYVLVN
Settings: not given
The method in brief:
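At room temperature, enzyme (6 nM, 2× final) was preincubated with compound for 30 min, then 6 mM ATP and 400 μM HDAC5tide (both 2× final) were added for 2 h. ADP formed was measured by ADP-Glo Max (2 h reagent, 1 h detection) using luminescence.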
In the case of `Cc1cc(-c2ccn3nc(NC(=O)C4CC4)cc3c2)c(OCC2NCC2(F)F)cn1` (racemic) [Example 469, rac-N-[5-[5-[(3,3-difluoroazetidin-2-yl)methoxy]-2-methyl-4-pyridyl]pyrazolo[1,5-a]pyridin-2-yl]cyclopropanecarboxamide], the IC50 turned out to be 0.00448 µM.

Turning to `Cc1cc(-c2ccn3nc(Nc4cnccn4)cc3c2)c(O[C@H]2C[C@H]3COC[C@@H](C2)N3)nn1` [Example 486, 5-[6-methyl-3-[[(1S,5R)-3-oxa-9-azabicyclo[3.3.1]nonan-7-yl]oxy]pyridazin-4-yl]-N-pyrazin-2-yl-pyrazolo[1,5-a]pyridin-2-amine], the IC50 came out at 0.0285 µM.

In turn, `Cc1cc(-c2ccn3nc(NC(=O)C4CC4)cc3c2)c(OC[C@H]2CCN2CCF)cn1` [Example 529, N-[5-[5-[[(2R)-1-(2-fluoroethyl)azetidin-2-yl]methoxy]-2-methyl-4-pyridyl]pyrazolo[1,5-a]pyridin-2-yl]cyclopropanecarboxamide] had an IC50 of 0.000963 µM.

The compound `COc1cc(Nc2cc3cc(-c4cc(C)ncc4O[C@H]4C[C@H]5COC[C@@H](C4)N5)ccn3n2)cc(OC)c1C(=O)NC(C)C` [Example 340, N-isopropyl-2,6-dimethoxy-4-[[5-[2-methyl-5-[[(1S,5R)-3-oxa-9-azabicyclo[3.3.1]nonan-7-yl]oxy]-4-pyridyl]pyrazolo[1,5-a]pyridin-2-yl]amino]benzamide] showed an IC50 of under 0.000847 µM.

In turn, `Cc1cnc(Nc2cn3cc(-c4cc(C)ncc4O[C@H]4C[C@H]5COC[C@@H](C4)N5)ncc3n2)cn1` [Example 320, 6-[2-methyl-5-[[(1S,5R)-3-oxa-9-azabicyclo[3.3.1]nonan-7-yl]oxy]-4-pyridyl]-N-(5-methylpyrazin-2-yl)imidazo[1,2-a]pyrazin-2-amine] had an IC50 of 0.00102 µM.

In the case of `Cc1cc(-c2ccn3nc(Nc4cccnn4)cc3c2)c(O[C@H]2C[C@H]3CC[C@@H](C2)N3C)cn1` [Example 514, 5-[2-methyl-5-[[(1S,5R)-8-methyl-8-azabicyclo[3.2.1]octan-3-yl]oxy]-4-pyridyl]-N-pyridazin-3-yl-pyrazolo[1,5-a]pyridin-2-amine], the midpoint of inhibition, the IC50, lay at 0.0303 µM.

Turning to `Cc1cc(-c2ccn3nc(Nc4cnc(C(F)(F)F)cn4)cc3c2)c(O[C@H]2C[C@H]3COC[C@@H](C2)N3)cn1` [Example 375, 5-(5-(((1R,5S,7s)-3-oxa-9-azabicyclo[3.3.1]nonan-7-yl)oxy)-2-methylpyridin-4-yl)-N-(5-(trifluoromethyl)pyrazin-2-yl)pyrazolo[1,5-a]pyridin-2-amine], the IC50 is 0.00115 µM.

Staying with this experiment, now noted: enzyme 6 nM, 6 mM ATP and 400 μM HDAC5tide (each 2× final concentration); 30 minutes pre-incubation, 2 hours; ADP-Glo Max luminescence; read-out: SIK2 high ATP IC50 (μM) (Test Example 2).
Take `COCc1cc(-c2ccn3nc(Nc4cc(C)nc(C)n4)cc3c2)c(OCC(C)(C)C#N)cn1` [Example 668, 3-[[4-[2-[(2,6-dimethylpyrimidin-4-yl)amino]pyrazolo[1,5-a]pyridin-5-yl]-6-(methoxymethyl)-3-pyridyl]oxy]-2,2-dimethyl-propanenitrile]: the IC50 came to 0.319 µM.

As for `CCc1nc(C)cc(Nc2cc3cc(-c4cc(C)ncc4OCC(C)(C)O)ccn3n2)n1` [Example 202, 1-[[4-[2-[(2-ethyl-6-methyl-pyrimidin-4-yl)amino]pyrazolo[1,5-a]pyridin-5-yl]-6-methyl-3-pyridyl]oxy]-2-methyl-propan-2-ol], the IC50 is 0.00758 µM.

`Cc1cc(-c2ccn3nc(Nc4cnccn4)cc3c2)c(OC[C@H]2CNCCO2)cn1` [Example 430, 5-[2-methyl-5-[[(2R)-morpholin-2-yl]methoxy]-4-pyridyl]-N-pyrazin-2-yl-pyrazolo[1,5-a]pyridin-2-amine]: the IC50 was 0.00801 µM.

As to `Cc1cc(-c2ccn3nc(Nc4cc(C)nc(C)n4)cc3c2)c(OCC(C)(C)NS(C)(=O)=O)cn1` [Example 361, N-[2-[[4-[2-[(2,6-dimethylpyrimidin-4-yl)amino]pyrazolo[1,5-a]pyridin-5-yl]-6-methyl-3-pyridyl]oxy]-1,1-dimethyl-ethyl]methanesulfonamide], the IC50 came out at 0.00703 µM.

For the compound `Cc1cc(-c2ccn3nc(NC(=O)C4CC4)cc3c2)c(OC[C@]23C[C@H](CO2)N(C)C3)cn1` [Example 249, N-[5-[2-methyl-5-[[(1R,4R)-2-methyl-5-oxa-2-azabicyclo[2.2.1]heptan-4-yl]methoxy]-4-pyridyl]pyrazolo[1,5-a]pyridin-2-yl]cyclopropanecarboxamide], the IC50 was 0.0237 µM.

Take `Cc1cc(-c2ccn3nc(NC(=O)C4CC4)cc3c2)c(OC[C@@]2(O)CCN(C)C2)cn1` (single isomer, unassigned) [Example 522, (*R)—N-[5-[5-[(3-hydroxy-1-methyl-pyrrolidin-3-yl)methoxy]-2-methyl-4-pyridyl]pyrazolo[1,5-a]pyridin-2-yl]cyclopropanecarboxamide]: the IC50 turned out to be 0.013 µM.

Take `CC(C)(C#N)COc1cnc(OC(F)F)cc1-c1ccn2nc(Nc3ccc(C(C)(C)O)nn3)cc2c1` [Example 712, 3-[[6-(difluoromethoxy)-4-[2-[[6-(1-hydroxy-1-methyl-ethyl)pyridazin-3-yl]amino]pyrazolo[1,5-a]pyridin-5-yl]-3-pyridyl]oxy]-2,2-dimethyl-propanenitrile]: the IC50 came to 0.00411 µM.

For `Cn1ccc(Nc2cc3cc(-c4cc(OC(F)F)ncc4OCC(C)(C)C#N)ccn3n2)n1` [Example 714, 3-[[6-(difluoromethoxy)-4-[2-[(1-methylpyrazol-3-yl)amino]pyrazolo[1,5-a]pyridin-5-yl]-3-pyridyl]oxy]-2,2-dimethyl-propanenitrile], the IC50 came out at 0.00617 µM.

With `Cc1cc(-c2ccn3nc(Nc4cc(C)nc(C)n4)cc3c2)c(OCC(O)(C(F)(F)F)C(F)(F)F)cn1` [Example 259, 2-[[4-[2-[(2,6-dimethylpyrimidin-4-yl)amino]pyrazolo[1,5-a]pyridin-5-yl]-6-methyl-3-pyridyl]oxymethyl]-1,1,1,3,3,3-hexafluoro-propan-2-ol], the IC50 was found to be 0.0153 µM.

For the compound `COc1cc(Nc2cc3cc(-c4cc(C)ncc4OCC(C)(C)O)ccn3n2)cc(OC(F)F)c1C(=O)NC1CC1` [Example 648, N-cyclopropyl-2-(difluoromethoxy)-4-[[5-[5-(2-hydroxy-2-methyl-propoxy)-2-methyl-4-pyridyl]pyrazolo[1,5-a]pyridin-2-yl]amino]-6-methoxy-benzamide], the IC50 came out at 0.0887 µM.

On to `Cc1cc(-c2ccn3nc(Nc4cc(C)c(=O)n(CCOC(F)F)n4)cc3c2)c(OCC(C)(C)O)cn1` [Example 284, 2-[2-(difluoromethoxy)ethyl]-6-[[5-[5-(2-hydroxy-2-methyl-propoxy)-2-methyl-4-pyridyl]pyrazolo[1,5-a]pyridin-2-yl]amino]-4-methyl-pyridazin-3-one], for which the IC50 is 0.0188 µM.

With `Cc1cc(Nc2cc3cc(-c4cc(OC(F)F)ncc4OC[C@@H]4CC(=O)NC4(C)C)ccn3n2)nc(C)n1` (single isomer, unassigned) [Example 731], the IC50 came out at 0.00997 µM.

For the compound `Cc1cc(-c2ccn3nc(Nc4cc(C)nc(C)n4)cc3c2)c(O[C@H]2CC[C@H](C(N)=O)CC2)cn1` [Example 343, 4-[[4-[2-[(2,6-dimethylpyrimidin-4-yl)amino]pyrazolo[1,5-a]pyridin-5-yl]-6-methyl-3-pyridyl]oxy]cyclohexanecarboxamide], the IC50 is 0.0376 µM.

In the case of `CC#Cc1cc(-c2ccn3nc(NC(=O)C4CC4)cc3c2)c(O[C@H]2CCNC2)cn1` [Example 280, N-[5-[2-prop-1-ynyl-5-[(3S)-pyrrolidin-3-yl]oxy-4-pyridyl]pyrazolo[1,5-a]pyridin-2-yl]cyclopropanecarboxamide], the IC50 is 0.0032 µM.

Regarding `CCN1CC[C@@H](COc2cnc(C#N)cc2-c2ccn3nc(NC(=O)C4CC4)cc3c2)C1` [Example 616, N-[5-[2-cyano-5-[[(3R)-1-ethylpyrrolidin-3-yl]methoxy]-4-pyridyl]pyrazolo[1,5-a]pyridin-2-yl]cyclopropanecarboxamide], the IC50 is 0.00103 µM.

In the case of `Cc1cc(-c2ccn3nc(NC(=O)[C@@H]4C[C@H]4C)cc3c2)c(OC[C@]23C[C@H](CO2)N(C)C3)cn1` [Example 250, (1R,2R)-2-methyl-N-[5-[2-methyl-5-[[(1R,4R)-2-methyl-5-oxa-2-azabicyclo[2.2.1]heptan-4-yl]methoxy]-4-pyridyl]pyrazolo[1,5-a]pyridin-2-yl]cyclopropanecarboxamide], the IC50 amounted to 0.0217 µM.

Consider `CCn1nc(Nc2cc3cc(-c4cc(C)ncc4OC[C@H]4OCC[C@@H]4O)ccn3n2)cc(C)c1=O` [Example 293, 2-ethyl-6-[[5-[5-[[(2R,3S)-3-hydroxytetrahydrofuran-2-yl]methoxy]-2-methyl-4-pyridyl]pyrazolo[1,5-a]pyridin-2-yl]amino]-4-methyl-pyridazin-3-one], for which the IC50 was under 0.000847 µM.

Consider `CCNc1nc(Nc2cc3cc(-c4cc(OC(F)F)ncc4OCC(C)(C)C#N)ccn3n2)cc(C(F)(F)F)n1` [Example 700, 3-[[6-(difluoromethoxy)-4-[2-[[2-(ethylamino)-6-(trifluoromethyl)pyrimidin-4-yl]amino]pyrazolo[1,5-a]pyridin-5-yl]-3-pyridyl]oxy]-2,2-dimethyl-propanenitrile], for which the IC50 worked out at 0.00786 µM.

As to `CC(=O)NC(C)(C)COc1cnc(C)cc1-c1ccn2nc(Nc3cc(C)nc(C)n3)cc2c1` [Example 360, N-[2-[[4-[2-[(2,6-dimethylpyrimidin-4-yl)amino]pyrazolo[1,5-a]pyridin-5-yl]-6-methyl-3-pyridyl]oxy]-1,1-dimethyl-ethyl]acetamide], the IC50 was determined as 0.0058 µM.

As to `CC#Cc1cc(-c2ccn3nc(Nc4cc(C)nc(C)n4)cc3c2)c(OCC(C)(C)C#N)cn1` [Example 670, 3-[[4-[2-[(2,6-dimethylpyrimidin-4-yl)amino]pyrazolo[1,5-a]pyridin-5-yl]-6-prop-1-ynyl-3-pyridyl]oxy]-2,2-dimethyl-propanenitrile], the IC50 was 0.0831 µM.

Take `CC#Cc1cc(-c2ccn3nc(NC(=O)C4CC4)cc3c2)c(OC[C@@H]2CNCCO2)cn1` [Example 443, N-[5-[5-[[(2S)-morpholin-2-yl]methoxy]-2-prop-1-ynyl-4-pyridyl]pyrazolo[1,5-a]pyridin-2-yl]cyclopropanecarboxamide]: the IC50 turned out to be 0.00436 µM.

As usually defined, the IC50 is the midpoint of a concentration-inhibition curve.
